In ChEMBL document CHEMBL1201862, “PubChem BioAssay data set” (2004):
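Each compound was tested at five concentrations against cells in 96-well plates for 48 hours. Here, GI50 denotes the concentration required for 50% inhibition of growth.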 The source made the active and inactive calls. Rule as the data show it: active = GI50 up to about 1.1 µM and inactive = higher.

Columns and labels:
Assay in all cases: NCI tumour cell line growth inhibition, 48 h
[1] = test system: RXF 393
[2] = test system: SK-OV-3
[3] = test system: HL-60
[4] = test system: OVCAR-4
[5] = test system: RPMI-8226
[6] = test system: HT-29
[7] = test system: HOP-92
[8] = test system: SR
[9] = test system: NCI-H226
[10] = test system: HCT-15
[11] = test system: Malme-3M
[12] = test system: SNB-75
[13] = test system: OVCAR-3
[14] = test system: TK-10
[15] = test system: COLO 205
[16] = test system: 786-0
[17] = test system: A498

SMILES	GI50 [1]	GI50 [2]	GI50 [3]	GI50 [4]	GI50 [5]	GI50 [6]	GI50 [7]	GI50 [8]	GI50 [9]	GI50 [10] [µM]	GI50 [11]	GI50 [12]	GI50 [13]	GI50 [14]	GI50 [15]	GI50 [16]	GI50 [17]
COc1ccc(C(Cl)=C(c2ccc(OCCN(C)C)cc2)c2ccc(OCCN(C)C)cc2)cc1	1.13 µM (inactive)	2.53 µM (inactive)	1.83 µM (inactive)	2.49 µM (inactive)	1.62 µM (inactive)	1.49 µM (inactive)	2.16 µM (inactive)	1.36 µM (inactive)	1.61 µM (inactive)	1.59	1.81 µM (inactive)	1.44 µM (inactive)	2.09 µM (inactive)	17.1 µM (inactive)	1.39 µM (inactive)	1.27 µM (inactive)	–
COc1ccc(CNc2cnc3ccc(N)cc3n2)cc1	–	–	> 100 µM (inactive)	> 100 µM (inactive)	81.8 µM (inactive)	> 100 µM (inactive)	–	–	> 100 µM (inactive)	> 100	> 100 µM (inactive)	64.6 µM (inactive)	> 100 µM (inactive)	> 100 µM (inactive)	0.064 µM (active)	> 100 µM (inactive)	–
CCc1c(C)[nH]c2c1/C(=N/N=C1\CCCc3[nH]c(C)c(CC)c31)CCC2	22.6 µM (inactive)	30.8 µM (inactive)	11.9 µM (inactive)	18.1 µM (inactive)	7.67 µM (inactive)	27.4 µM (inactive)	14.5 µM (inactive)	–	17.6 µM (inactive)	19.4	> 100 µM (inactive)	20.8 µM (inactive)	14.5 µM (inactive)	49.1 µM (inactive)	17.9 µM (inactive)	> 100 µM (inactive)	25.6 µM (inactive)
N#C/C(=C\c1cc(OCc2ccccc2)c(OCc2ccccc2)cn1)C(N)=O	> 100 µM (inactive)	> 100 µM (inactive)	16 µM (inactive)	> 100 µM (inactive)	36.6 µM (inactive)	> 100 µM (inactive)	85.7 µM (inactive)	–	> 100 µM (inactive)	> 100	> 100 µM (inactive)	36.7 µM (inactive)	> 100 µM (inactive)	> 100 µM (inactive)	> 100 µM (inactive)	> 100 µM (inactive)	> 100 µM (inactive)
Cc1nc2nnnn2c2c1C(=O)Nc1ccccc1N2	> 100 µM (inactive)	> 100 µM (inactive)	> 100 µM (inactive)	–	> 100 µM (inactive)	> 100 µM (inactive)	> 100 µM (inactive)	18.7 µM (inactive)	> 100 µM (inactive)	–	> 100 µM (inactive)	> 100 µM (inactive)	> 100 µM (inactive)	> 100 µM (inactive)	> 100 µM (inactive)	> 100 µM (inactive)	–
Cc1ccc(/N=C2\N=C(N3CC(C)OC(C)C3)c3ccccc32)cc1 (configuration not stated)	12.6 µM (inactive)	–	–	18.1 µM (inactive)	27.2 µM (inactive)	23.7 µM (inactive)	1.41 µM (inactive)	–	29 µM (inactive)	25.4	31.2 µM (inactive)	27.9 µM (inactive)	24.3 µM (inactive)	34.2 µM (inactive)	40.3 µM (inactive)	34.4 µM (inactive)	26.6 µM (inactive)
CCCCCCCCCCCCSC(=S)c1c(C)[nH]n(-c2ccccc2)c1=O	10.3 µM (inactive)	16.3 µM (inactive)	8.59 µM (inactive)	8.36 µM (inactive)	11.2 µM (inactive)	14.3 µM (inactive)	25.8 µM (inactive)	–	14.9 µM (inactive)	1.93	10.7 µM (inactive)	–	13.3 µM (inactive)	22.2 µM (inactive)	15.3 µM (inactive)	15.6 µM (inactive)	26.7 µM (inactive)
CN(C)CCNC(=O)c1cccc2[nH]c(-c3cccnc3)nc12	16.9 µM (inactive)	22.6 µM (inactive)	31.5 µM (inactive)	29.3 µM (inactive)	–	27.4 µM (inactive)	22.6 µM (inactive)	–	22.4 µM (inactive)	24.8	–	20.9 µM (inactive)	20.8 µM (inactive)	19.8 µM (inactive)	14.5 µM (inactive)	22.9 µM (inactive)	14.2 µM (inactive)
Cn1c(=O)c2c(nc3n2CCC(=O)N3)n(C)c1=O	> 100 µM (inactive)	> 100 µM (inactive)	> 100 µM (inactive)	> 100 µM (inactive)	–	> 100 µM (inactive)	> 100 µM (inactive)	> 100 µM (inactive)	> 100 µM (inactive)	–	> 100 µM (inactive)	–	–	> 100 µM (inactive)	> 100 µM (inactive)	> 100 µM (inactive)	> 100 µM (inactive)
OCC(O)C(O)C(O)c1nn(-c2ccc(F)cc2)c2nc3cc(Cl)c(Cl)cc3nc12 (configuration not stated)	15.6 µM (inactive)	23.3 µM (inactive)	> 100 µM (inactive)	6.21 µM (inactive)	36.4 µM (inactive)	56 µM (inactive)	–	–	24.2 µM (inactive)	53.3	9.51 µM (inactive)	3.94 µM (inactive)	21.8 µM (inactive)	21.5 µM (inactive)	69 µM (inactive)	17.3 µM (inactive)	–
NC1(CCCCCCCCCCC(=O)O)CNCCNCCNCCNC1	27.7 µM (inactive)	63.8 µM (inactive)	15.9 µM (inactive)	30.9 µM (inactive)	37.4 µM (inactive)	40.8 µM (inactive)	–	22.7 µM (inactive)	–	–	78.3 µM (inactive)	–	59 µM (inactive)	31.2 µM (inactive)	15.6 µM (inactive)	36.7 µM (inactive)	13.7 µM (inactive)
CCOC(=O)C(CCC(N)=O)(CCC(=O)OC)C(=O)OCC	> 100 µM (inactive)	> 100 µM (inactive)	> 100 µM (inactive)	> 100 µM (inactive)	> 100 µM (inactive)	> 100 µM (inactive)	> 100 µM (inactive)	> 100 µM (inactive)	> 100 µM (inactive)	–	> 100 µM (inactive)	> 100 µM (inactive)	> 100 µM (inactive)	> 100 µM (inactive)	> 100 µM (inactive)	> 100 µM (inactive)	> 100 µM (inactive)
CCOC(=O)NC(=O)c1cn(CCN2CCN(C(=O)CNC(=O)CNC(=O)Cn3cc(C(=O)NC(=O)OCC)c(=O)[nH]c3=O)CC2)c(=O)[nH]c1=O	–	> 100 µM (inactive)	> 100 µM (inactive)	–	–	> 100 µM (inactive)	> 100 µM (inactive)	> 100 µM (inactive)	–	> 100	> 100 µM (inactive)	> 100 µM (inactive)	> 100 µM (inactive)	> 100 µM (inactive)	> 100 µM (inactive)	> 100 µM (inactive)	> 100 µM (inactive)
Cc1ccc(C)c(NC(=O)CC/C(=N\NC(=O)c2c(O)ccc3ccccc23)C(C)C(=O)c2ccc(O)cc2)c1 (configuration not stated)	51.9 µM (inactive)	–	5.26 µM (inactive)	29.9 µM (inactive)	94.4 µM (inactive)	46.9 µM (inactive)	46.3 µM (inactive)	27.8 µM (inactive)	37.1 µM (inactive)	26.5	34.8 µM (inactive)	20.2 µM (inactive)	23.3 µM (inactive)	> 100 µM (inactive)	25.2 µM (inactive)	28.5 µM (inactive)	60.8 µM (inactive)
COC(=O)/C(=N\NC(N)=S)C(C#N)c1ccccc1 (configuration not stated)	> 100 µM (inactive)	> 100 µM (inactive)	> 100 µM (inactive)	> 100 µM (inactive)	> 100 µM (inactive)	> 100 µM (inactive)	> 100 µM (inactive)	–	> 100 µM (inactive)	> 100	> 100 µM (inactive)	19 µM (inactive)	> 100 µM (inactive)	> 100 µM (inactive)	> 100 µM (inactive)	> 100 µM (inactive)	> 100 µM (inactive)
COc1cc(C[P+](c2ccccc2)(c2ccccc2)c2ccccc2)cc(OC)c1OC	> 100 µM (inactive)	> 100 µM (inactive)	> 100 µM (inactive)	> 100 µM (inactive)	> 100 µM (inactive)	> 100 µM (inactive)	> 100 µM (inactive)	> 100 µM (inactive)	> 100 µM (inactive)	> 100	> 100 µM (inactive)	> 100 µM (inactive)	> 100 µM (inactive)	> 100 µM (inactive)	> 100 µM (inactive)	> 100 µM (inactive)	–
O=C(O)CCNS(=O)(=O)c1ccc(NC(=O)c2ccccc2)cc1	> 100 µM (inactive)	> 100 µM (inactive)	> 100 µM (inactive)	> 100 µM (inactive)	> 100 µM (inactive)	> 100 µM (inactive)	> 100 µM (inactive)	–	–	> 100	> 100 µM (inactive)	> 100 µM (inactive)	> 100 µM (inactive)	> 100 µM (inactive)	> 100 µM (inactive)	> 100 µM (inactive)	> 100 µM (inactive)
O=C1C2CC=CCC2C(=O)C12CCc1ccccc12 (configuration not stated)	> 100 µM (inactive)	> 100 µM (inactive)	74.6 µM (inactive)	> 100 µM (inactive)	–	> 100 µM (inactive)	> 100 µM (inactive)	–	–	> 100	> 100 µM (inactive)	> 100 µM (inactive)	> 100 µM (inactive)	> 100 µM (inactive)	> 100 µM (inactive)	> 100 µM (inactive)	–
CN(C)c1ccc(/C=C(/C(=O)O)c2csc(-c3nc(/C(=C\c4ccc(N(C)C)cc4)C(=O)O)cs3)n2)cc1	> 100 µM (inactive)	> 100 µM (inactive)	43 µM (inactive)	–	46.1 µM (inactive)	44.7 µM (inactive)	> 100 µM (inactive)	–	> 100 µM (inactive)	42.1	> 100 µM (inactive)	> 100 µM (inactive)	> 100 µM (inactive)	> 100 µM (inactive)	93.3 µM (inactive)	46.2 µM (inactive)	> 100 µM (inactive)
